The values that follow come from publication PMC4234468 (PLoS ONE, 2014).

One assay relates to β2AR-RLuc. The settings on record: β2AR-RLuc fusion construct; ref Vrecl et al. [47]; cited from earlier work.
The target in assay [1] is T1, HA-β2AR (Homo sapiens, UniProt P07550).
T1 construct: host or cells: HEK-293
Description: whole-cell radioligand binding assay, [125I]-iodopindolol displacement, HA-β2AR. The settings on record: HEK-293 cells expressing HA-β2AR alone or with IR.
Description: To establish a relationship between the luminescence/fluorescence signals generated by RLuc8 and GFP^2-tagged β2ARs and cell-surface receptor number, radioligand binding assays were carried out on whole cells as previously described [47]. […] An aliquot of cells (∼5×10^5) from each transfection was also transferred into a 60-mm dish for total luminescence/fluorescence measurements as described above. […] Determination of the radioactivity levels was performed in triplicate. Binding parameters were determined from displacement curves generated by a sigmoidal dose-response curve fit (GraphPad Prism 5.0). Receptor density (Bmax), expressed as the receptor number per cell, was calculated as previously described by Ramsay et al. [48]. Whole-cell radioligand binding assays were also performed with cells expressing β2AR alone or in combination with IR.

Assay [2] addresses T1, HA-β2AR. Put plainly: HA-β2AR internalization quantified by ELISA in HEK-293 cells. It counts as cell-based. The procedure: ELISA assays for the measurement of surface-expressed HA-β2AR and quantification of receptor internalization were performed as described previously. Briefly, HEK-293 cells were transiently transfected with either β2AR-RLuc8 alone or β2AR-RLuc8 and IR-GFP^2. One microgram of each receptor was used, and the total amount of cDNA used for transfection was kept uniform by adding empty pcDNA3.1 vector. […] After 48 h, cells were first subjected to a 2-h starvation period, and then were treated as required in HEPES-modified DMEM with 0.1% BSA for 30 min at 37°C before fixing with 4% paraformaldehyde for 20 min at 4°C. Cells were then washed 3 times in PBS and blocked (PBS containing 1% BSA) for 60 min at room temperature. Cells were kept at room temperature for all of the subsequent steps. First, cells were incubated for 2 h with anti-HA antibody at a 1∶600 dilution. After 3 washes, cells were incubated with anti-rat horseradish peroxidase-conjugated antibody at a 1∶1000 dilution. After extensive washing, the reaction was developed using the 3, 3′, 5, 5′-tetra-methylbenzidine (TMB) liquid substrate system. […] The absorbances were measured at 450 nm using the microplate reader Rosys Anthos 2010 (Anthos Labtec Instruments, Wals, Austria). […]
[…]. Data are expressed as the means ± S.E. from three independent experiments performed in triplicate. […]

The test system of assay [3] is β2AR in epidermoid carcinoma A431 cells. More on the design: method as in PMID 14709719. To be noted: cited from earlier work.
The subject of assay [4] is β2AR and IR receptor complexes. Description: BRET^2 saturation assay with agonist stimulation, β2AR and IR homo- and heteromers in HEK-293 cells. The settings on record: data not shown.

With `CC(C)NCC(O)COc1cccc2[nH]ccc12` (stereo not shown) [pindolol], the IC50 in the assay with β2AR-RLuc is 0.94 ± 0.06 nM.
For insulin, on HA-β2AR [1], the “competition for binding against [125I]-iodopindolol” value is on record as “neither competed for binding”. For the same compound, the “amount of surface-expressed β2AR lost to internalization in response to insulin” value at HA-β2AR [2] is recorded as ~15%; in assay [3], ~30%. On HA-β2AR [2] (insulin 0.1 µM, 30 min, 37°C), the “β2AR internalization (ELISA, Figure S1)” value is on record as “did not induce marked β2AR internalization”. In addition, the “change in the BRET^2 signal on agonist stimulation” value in assay [4] is “did not promote any detectable change”.
Consider `CC(C)NCC(O)c1ccc(O)c(O)c1` (stereo not shown) [isoproterenol, reference compound], for which the “change in the BRET^2 signal on agonist stimulation” value in assay [4] is listed as “did not promote any detectable change”.

The term IC50 denotes the concentration needed to halve the response being measured.
